Experimental data reported in patent publication US20170007619A1, “High Dose Dehydroepiandrosterone as Anticancer Treatment With Multi-faceted Reconstitution of Otherwise Depleted Metabolites” (priority 2015, published 2017).
Entries after “also recorded” stand apart in the source; their conditions may differ.

How the values were obtained:
statin-treated cells = conditions: cited from earlier work
[1] = tested on: human colonic carcinoma HT29SF cells; experiment: Flow cytometric cell cycle analysis of HT-29SF cells exposed to DHEA; type: cell-based
[2] = Depletion and reconstitution of metabolites in dogs treated with HD DHEA; type: in vivo; conditions: for ubiquinone levels with supplementation in DHEA-treated animals: supplementation with ubiquinone and tocotrienols
Procedure: FIG. 4. […] For IPA quantitation, preliminary in vitro studies were performed in which DHEA-treated and control HT-29SF cells were exposed to [^3H]-mevalonic acid (saponified; data not shown). […] For ease of presentation, pretreatment values for all 3 determinations (BH4, IPA and ubiquinone) were given a value of 1, with treatment values presented as their respective fraction thereof. Male and female dogs had blood or other specimens drawn pretreatment, and then following 90 days of 10 mg/kg DHEA±reconstitution protocol.
FIG. 6. […] Fifteen ml blood samples were drawn and the buffy coat was isolated by low speed centrifugation in the standard manner. […] AMP, ADP and ATP were quantitated. […] For ease of presentation, pretreatment values are presented with a value of 1, with treatment values presented as their respective fraction thereof.
FIG. 8. […] Ten mg of intestinal mucosa was analyzed for each animal. […] Results are presented as percentage of values in pretreatment dogs, mean±SEM.
FIG. 10. […] 24 hour urine was collected from neutered male and female animals in amber glass containment vessels. To 100 ml of urine was added 1 ml of concentrated HCL as preservative. […] These same dogs were then administered DHEA (10 mg/kg)±the reconstitution regimen which included the monoamine mix described above. This treatment continued for 90 days, at which time further urine specimens were collected and assayed for norepinephrine. The data are reported as the mean±SEM.
FIG. 11. […] Before treatment, 10-15 ml blood samples were taken from male and female neutered dogs, and plasma was collected by low speed centrifugation by the standard method.

[3] = biological target: Glucose-6-phosphate dehydrogenase (G6PD) (Homo sapiens, UniProt P11413); conditions: cited from earlier work
Chain of Glucose-6-phosphate dehydrogenase (G6PD) (P11413 whole entry, species assumed): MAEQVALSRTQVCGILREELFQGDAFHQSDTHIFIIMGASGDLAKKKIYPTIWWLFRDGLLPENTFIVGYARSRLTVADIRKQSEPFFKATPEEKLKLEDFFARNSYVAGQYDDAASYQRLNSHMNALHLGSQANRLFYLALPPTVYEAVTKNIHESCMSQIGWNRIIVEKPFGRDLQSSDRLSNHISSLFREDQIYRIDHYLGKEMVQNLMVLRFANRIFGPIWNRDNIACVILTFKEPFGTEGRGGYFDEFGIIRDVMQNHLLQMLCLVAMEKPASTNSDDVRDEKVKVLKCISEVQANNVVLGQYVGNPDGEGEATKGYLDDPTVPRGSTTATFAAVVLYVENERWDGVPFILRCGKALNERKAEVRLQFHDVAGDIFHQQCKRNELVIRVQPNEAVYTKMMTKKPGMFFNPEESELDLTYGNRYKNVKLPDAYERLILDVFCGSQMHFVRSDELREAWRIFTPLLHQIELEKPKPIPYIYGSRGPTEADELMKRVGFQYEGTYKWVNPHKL

[4] = Side effects of HD DHEA and their prevention by reconstitution; type: in vivo, dogs; conditions: for susceptibility to infections under DHEA with concurrent reconstitution: dogs and cats; for susceptibility to infections under DHEA with concurrent reconstitution / fluid retention symptoms under DHEA with concurrent reconstitution: concurrent BH4, potassium nitrate and IPA; for fluid retention symptoms under DHEA with concurrent reconstitution: dogs; for DHEA-induced ocular (ophthalmic) inflammation on reconstitution: dogs administered DHEA, IPA (and BH4) added
Excerpt: Table 1. Physical symptoms associated with HD DHEA-induced Nitric Oxide (NO) depletion.

[5] = tested on: 1,2-dimethylhydrazine-induced colonic tumors, which metastasize to the liver; experiment: Carcinogen (1,2-dimethylhydrazine)-induced tumors in dogs ± HD DHEA (Table 2); type: in vivo
Excerpt: Table 2. Decreased tumor volume and increased longevity in dogs administered HD DHEA to treat […] tumors. […] Organotropic carcinogens produce tumors in specific organs. Dimethylhydrazine produces exclusively colonic tumors, which metastasize to the liver. In this series of experiments 13 dogs were exposed to DMH only, and 13 were exposed to DMH followed by treatment with HD DHEA.

spontaneous cancers = experiment: HD DHEA in cancer stricken dogs (spontaneous cancers, Table 3); type: in vivo
Excerpt: In preliminary experiments we exposed human colonic carcinoma HT29SF cells to various doses of DHEA and assessed the effects of such treatment upon cell cycle kinetics.
Table 3. Decreased tumor volume, increased longevity (compared to historical controls), and improved quality of life in dogs with spontaneous cancers.

[6] = DMH followed by HD DHEA, Student's t test
[7] = tissues of animals administered HD DHEA
[8] = tissues of dogs administered HD DHEA

CC(C)=CCNc1ncnc2nc[nH]c12 [Isopentenyladenine]
activity in restoring DNA synthesis relative to mevalonate (statin-treated cells): approximately 100 fold

C[C@@](O)(CCO)CC(=O)O [mevalonic acid]
reversal of DHEA-induced cell cycle arrest ([1]; addition of mevalonic acid and nucleosides to DHEA-treated HT29SF cells): partly or completely reversed

tocotrienols
combination of ubiquinone and tocotrienols vs ubiquinone alone, retaining ubiquinone levels ([2]; DHEA-treated animals): more effective | ubiquinone levels with supplementation in DHEA-treated animals [2]: maintains normal or near normal ubiquinone levels

C[C@]12C=CC(=O)C=C1CC[C@@H]1[C@@H]2C(=O)C[C@@]2(C)[C@H]1CC[C@]2(O)C(=O)CO [prednisone]
G6PD inhibition [3]: does not inhibit G6PD

O=[N+]([O-])[O-].[K+] [potassium nitrate]
symptoms associated with NO depletion ([4]; animals undergoing HD DHEA plus potassium nitrate): eliminating | susceptibility to infections under DHEA with concurrent reconstitution [4]: eliminated | fluid retention symptoms under DHEA with concurrent reconstitution [4]: eliminated | replenishment of NO in animals undergoing HD DHEA ([2]; potassium nitrate as NO donor): can replenish NO

N[C@@H](Cc1ccc(O)c(O)c1)C(=O)O [L-DOPA]
emesis ([4]; dog, in vivo): can lead to emesis in some dogs

C[C@]12CC[C@H](O)CC1=CC[C@@H]1[C@@H]2CC[C@]2(C)C(=O)CC[C@@H]12 [DHEA, Dehydroepiandrosterone]
number of tumors induced, control vs HD DHEA-treated dogs ([5]; 13 dogs DMH only vs 13 DMH followed by HD DHEA): not statistically different | number and total weight of hepatic metastases, control vs HD DHEA-treated dogs [5, 6]: statistically significant | weight of the individual colonic tumors, control vs HD DHEA-treated dogs [5, 6]: statistically significant | side effects observed with HD DHEA ([4]; HD DHEA without reconstitution): motor incoordination sometimes occurs; also recorded: susceptibility to infections, particularly in the ear and eye; also recorded: induction of vasoconstriction; also recorded: Fluid retention; also recorded: auto-inflammatory-like disorder | G6PD inhibition [3]: potent uncompetitive inhibitor of G6PD | NO level during HD DHEA ([2]; animals administered HD DHEA): depleted | total pools of isopentenylated tRNA ([2]; buffy coat lymphocytes of dogs treated with DHEA, HPLC): depleted | ubiquinone levels, continuous DHEA treatment ([2]; continuous treatment at doses capable of inducing HD DHEA): decline; also recorded: depleted | one carbon pool products (e.g., AMP, ADP, ATP; purines, pyrimidines, S-adenosylmethionine) during HD DHEA ([2]; dogs administered HD DHEA): profoundly depleted | ubiquinone levels, short term DHEA exposure ([2]; over the short term): increased | BH4 level during HD DHEA [2, 7]: depleted | IPA level during HD DHEA [2, 7]: becomes depleted | important monoamines during HD DHEA [2, 8]: depleted | phenylalanine levels during HD DHEA [2, 8]: increased | longevity (spontaneous cancers; HD DHEA): significant improvements in longevity | tumor volume (spontaneous cancers; HD DHEA): decreases in tumor volume | quality of life (spontaneous cancers; HD DHEA supplemented with specific metabolites): increases in quality of life | effect on cell cycle kinetics ([1]; HT29SF cells exposed to various doses of DHEA): arrested cells in the G1 phase of the cell cycle

COC1=C(OC)C(=O)C(C/C=C(\C)CC/C=C(\C)CC/C=C(\C)CC/C=C(\C)CC/C=C(\C)CC/C=C(\C)CC/C=C(\C)CC/C=C(\C)CC/C=C(\C)CCC=C(C)C)=C(C)C1=O [ubiquinone]
combination of ubiquinone and tocotrienols vs ubiquinone alone, retaining ubiquinone levels ([2]; DHEA-treated animals): more effective | ubiquinone levels with supplementation in DHEA-treated animals [2]: maintains normal or near normal ubiquinone levels

CC(C)=CCNc1ncnc2c1ncn2[C@@H]1O[C@H](CO)[C@@H](O)[C@H]1O [IPA, N6-Δ2-isopentenyladenosine]
DHEA-induced ocular (ophthalmic) inflammation on reconstitution [4]: prevents; also recorded: completely prevent | susceptibility to infections under DHEA with concurrent reconstitution [4]: eliminated | fluid retention symptoms under DHEA with concurrent reconstitution [4]: eliminated

CC(O)C(O)C1CNc2nc(N)[nH]c(=O)c2N1 (stereo not shown) [BH4, tetrahydrobiotperin]
DHEA-induced ocular (ophthalmic) inflammation on reconstitution [4]: prevents | susceptibility to infections under DHEA with concurrent reconstitution [4]: eliminated | fluid retention symptoms under DHEA with concurrent reconstitution [4]: eliminated | dopamine, norepinephrine and epinephrine levels on replenishment of BH4 ([2]; DHEA-treated animals): restoring normal or near normal
